Results taken from US9393308B2, “Micelle structure of nano preparation for diagnosis or treatment of cancer disease and preparation method thereof” (KOREA ADVANCED INSTITUTE OF SCIENCE AND TECHNOLOGY, priority 2013, dated 2016).

Key:
[1] = system: U251MG, which is a human malignant glioma cell; test: Light induced cytotoxicity by light irradiation (590 to 605 nm, 0.1 J/cm^2); assay type: cell-based; details: light 590 to 605 nm, 5 mW/cm^2, 0.1 J/cm^2, 12 hours culture
Protocol: 1×10^4 cell/well of U251MG, which is a human malignant glioma cell, were dispensed into a 96-well plate, and a DMEM/F12 medium (100 μL) was injected four times for each sample. 24 hours after culture, the medium was replaced with media respectively including the nanopreparations prepared in Example 1 and Comparative Examples 2 and 3 (sample treatment group) and a medium without the nanopreparation (non-treatment group). The samples were cultured at the dark room condition for 2 hours, washed with phosphate buffered saline (PBS). Then, media was replaced again with media without the nanopreparation. Subsequently, 5 mW/cm^2 of lighting power of light (590 to 605 nm) was irradiated through a light irradiation system (LIS) so that total energy applied to each cell is adjusted to 0.1 J/cm^2 to perform photodynamic diagnosis (photodynamic therapy). Each cell was cultured for 12 hours at the light irradiation condition. The cultured cell was subjected to the same method as Experimental Example 3 to measure light-cytotoxicity. Light induced cytotoxicity and light induced cytotoxicity efficiency were derived from the measured values by using Equations 1 and 2.

[2] = system: U251MG, which is a human malignant glioma cell; test: Cytotoxicity when light is not irradiated (WST-1, dark room condition); assay type: cell-based; details: 10 μM or less, 2 h treatment, 24 h additional culture
Protocol: In order to evaluate cytotoxicity, U251MG, which is a human malignant glioma cell, was obtained from American Type Culture Collection (ATCC, Manassas, Va., USA). The obtained cell was cultured in a Dulbecco's Modified Eagle's Medium including the nutrient mixture F-12, 10% fetal bovine serum, an antibiotic (penicillin (100 I.U./mL), and streptomycin (100 μg/mL)), and the 0.1 mM MEM non-essential amino acid solution under conditions of 37° C. and 5% carbon dioxide. 5×10^4 cell/well of the cultured cells were dispensed into a 24-well plate, and DMEM/F12 medium (1 mL) was injected four times for each sample. The medium was removed 24 hours after culture, and media respectively including nanopreparations prepared in Example 1 and Comparative Examples 2 and 3 in concentrations of 1.0, 2.5, 5.0, and 10 μM were injected. In this case, the volume of the nanopreparations included in the injected medium was set not to exceed 1.0% of the total volume of the medium. […] Then, absorbance of the culture medium was measured at the wavelength of 450 nm by using an absorbance microplate reader. In this case, the aforementioned whole procedure was performed at a dark room condition, and cell viability was derived from the measured normalized absorbance.

Cc1cc(O)c2c(=O)c3c(O)cc(O)c4c5c(O)cc(O)c6c(=O)c7c(O)cc(C)c8c1c2c(c34)c(c78)c65 [Comparative Example 2, Hypericin]
light toxicity (light induced cytotoxicity efficiency) [1]: 1.00±0.04 % mg/A.U. mL
toxicity to cells when light is not irradiated [2]: do not have toxicity to cells
